Experimental data as given in ChEMBL document CHEMBL1201862, “PubChem BioAssay data set” (2004).
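Test compounds were applied to cells in 96-well plates for 48 hours at 5 doses. GI50 = concentration required for 50% inhibition of growth.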 Calls of active or inactive are those of the source. Cut-off read from the data, not from the text of the source: active = GI50 up to about 1.1 µM and inactive = higher.

Legend:
Assay in all cases: NCI anticancer screen, dose series, 48 h
786-0 = system: 786-0
CCRF-CEM = system: CCRF-CEM
DLD-1 = system: DLD-1
HCC 2998 = system: HCC 2998
HCT-15 = system: HCT-15
K562 = system: K562
LOX IMVI = system: LOX IMVI
MOLT-4 = system: MOLT-4
NCI-H460 = system: NCI-H460
OVCAR-4 = system: OVCAR-4
OVCAR-5 = system: OVCAR-5
SF-295 = system: SF-295
SK-MEL-5 = system: SK-MEL-5
TK-10 = system: TK-10
UACC-257 = system: UACC-257
UACC-62 = system: UACC-62
EKVX = system: EKVX
SF-268 = system: SF-268

Structure (SMILES): CNCC(=O)Nc1ccc2c(c1)C(=O)c1ccc(NC(=O)CNC)cc1C2=O
- GI50 (786-0): 4.42 µM (inactive)
- GI50 (CCRF-CEM): 2.74 µM (inactive)
- GI50 (DLD-1): 9.64 µM (inactive)
- GI50 (HCC 2998): 4.72 µM (inactive)
- GI50 (HCT-15): 7.62 µM
- GI50 (K562): 1.96 µM (inactive)
- GI50 (LOX IMVI): 1.68 µM (inactive)
- GI50 (MOLT-4): 2.52 µM (inactive)
- GI50 (NCI-H460): 3.77 µM (inactive)
- GI50 (OVCAR-4): 1.91 µM (inactive)
- GI50 (OVCAR-5): 17.5 µM (inactive)
- GI50 (SF-295): 5.3 µM (inactive)
- GI50 (SK-MEL-5): 4.68 µM (inactive)
- GI50 (TK-10): 17.3 µM (inactive)
- GI50 (UACC-257): 4.36 µM (inactive)
- GI50 (UACC-62): 10.3 µM (inactive)

Structure (SMILES): C=CC1=C(C)c2cc3[nH]c(cc4nc(cc5[nH]c(cc1n2)c(C)c5CCC(=O)N(CC)CC)C(CCC(=O)N(CC)CC)=C4C)c(C)c3C=C
- GI50 (786-0): > 100 µM (inactive)
- GI50 (CCRF-CEM): > 100 µM (inactive)
- GI50 (DLD-1): > 100 µM (inactive)
- GI50 (EKVX): > 100 µM (inactive)
- GI50 (HCC 2998): > 100 µM (inactive)
- GI50 (HCT-15): > 100 µM
- GI50 (K562): > 100 µM (inactive)
- GI50 (LOX IMVI): > 100 µM (inactive)
- GI50 (MOLT-4): > 100 µM (inactive)
- GI50 (NCI-H460): > 100 µM (inactive)
- GI50 (OVCAR-4): > 100 µM (inactive)
- GI50 (OVCAR-5): 74.5 µM (inactive)
- GI50 (SF-295): 61.2 µM (inactive)
- GI50 (SK-MEL-5): > 100 µM (inactive)
- GI50 (TK-10): > 100 µM (inactive)
- GI50 (UACC-257): > 100 µM (inactive)
- GI50 (UACC-62): > 100 µM (inactive)

Structure (SMILES): CSc1nc(NC2OC(COC(C)=O)C(OC(C)=O)C(OC(C)=O)C2OC(C)=O)c(/N=C/C=N/c2c(NC3OC(COC(C)=O)C(OC(C)=O)C(OC(C)=O)C3OC(C)=O)nc(SC)[nH]c2=O)c(=O)[nH]1 (centres undefined)
- GI50 (786-0): > 100 µM (inactive)
- GI50 (DLD-1): > 100 µM (inactive)
- GI50 (EKVX): > 100 µM (inactive)
- GI50 (HCC 2998): > 100 µM (inactive)
- GI50 (HCT-15): > 100 µM
- GI50 (K562): > 100 µM (inactive)
- GI50 (LOX IMVI): > 100 µM (inactive)
- GI50 (NCI-H460): > 100 µM (inactive)
- GI50 (OVCAR-4): > 100 µM (inactive)
- GI50 (OVCAR-5): > 100 µM (inactive)
- GI50 (SF-268): > 100 µM (inactive)
- GI50 (SF-295): > 100 µM (inactive)
- GI50 (SK-MEL-5): > 100 µM (inactive)
- GI50 (TK-10): > 100 µM (inactive)
- GI50 (UACC-257): > 100 µM (inactive)
- GI50 (UACC-62): > 100 µM (inactive)

Structure (SMILES): Cc1ccc(-c2cc(-c3ccco3)c(C#N)c(=O)n2C2OC(OC(=O)c3ccccc3)C(OC(=O)c3ccccc3)C2OC(=O)c2ccccc2)cc1 (centres undefined)
- GI50 (786-0): 81.3 µM (inactive)
- GI50 (CCRF-CEM): > 100 µM (inactive)
- GI50 (DLD-1): > 100 µM (inactive)
- GI50 (EKVX): > 100 µM (inactive)
- GI50 (HCC 2998): > 100 µM (inactive)
- GI50 (HCT-15): > 100 µM
- GI50 (K562): > 100 µM (inactive)
- GI50 (LOX IMVI): > 100 µM (inactive)
- GI50 (MOLT-4): > 100 µM (inactive)
- GI50 (NCI-H460): > 100 µM (inactive)
- GI50 (OVCAR-5): > 100 µM (inactive)
- GI50 (SF-268): 81.3 µM (inactive)
- GI50 (SF-295): 59 µM (inactive)
- GI50 (TK-10): 96.2 µM (inactive)
- GI50 (UACC-62): > 100 µM (inactive)

Structure (SMILES): O=C1OCC(C(=O)c2cccc(O)c2)C1=O (centres undefined)
- GI50 (786-0): > 100 µM (inactive)
- GI50 (DLD-1): > 100 µM (inactive)
- GI50 (EKVX): > 100 µM (inactive)
- GI50 (HCC 2998): > 100 µM (inactive)
- GI50 (HCT-15): > 100 µM
- GI50 (LOX IMVI): > 100 µM (inactive)
- GI50 (NCI-H460): > 100 µM (inactive)
- GI50 (OVCAR-4): > 100 µM (inactive)
- GI50 (OVCAR-5): > 100 µM (inactive)
- GI50 (SF-268): > 100 µM (inactive)
- GI50 (SF-295): > 100 µM (inactive)
- GI50 (SK-MEL-5): > 100 µM (inactive)
- GI50 (TK-10): > 100 µM (inactive)
- GI50 (UACC-257): > 100 µM (inactive)
- GI50 (UACC-62): > 100 µM (inactive)

Structure (SMILES): O=C1NC(=O)C(C(=O)C(=O)Nc2ccc(Cl)cc2Cl)C(=O)N1
- GI50 (786-0): > 100 µM (inactive)
- GI50 (CCRF-CEM): > 100 µM (inactive)
- GI50 (DLD-1): > 100 µM (inactive)
- GI50 (EKVX): > 100 µM (inactive)
- GI50 (HCC 2998): > 100 µM (inactive)
- GI50 (HCT-15): > 100 µM
- GI50 (K562): > 100 µM (inactive)
- GI50 (MOLT-4): > 100 µM (inactive)
- GI50 (NCI-H460): > 100 µM (inactive)
- GI50 (OVCAR-4): > 100 µM (inactive)
- GI50 (OVCAR-5): > 100 µM (inactive)
- GI50 (SF-295): > 100 µM (inactive)
- GI50 (SK-MEL-5): > 100 µM (inactive)
- GI50 (TK-10): > 100 µM (inactive)
- GI50 (UACC-257): > 100 µM (inactive)
- GI50 (UACC-62): > 100 µM (inactive)

Structure (SMILES): CCc1cccc(C)c1NC(=O)CC(=O)NNC(N)=S
- GI50 (786-0): > 100 µM (inactive)
- GI50 (CCRF-CEM): > 100 µM (inactive)
- GI50 (DLD-1): > 100 µM (inactive)
- GI50 (EKVX): > 100 µM (inactive)
- GI50 (HCC 2998): > 100 µM (inactive)
- GI50 (HCT-15): > 100 µM
- GI50 (K562): > 100 µM (inactive)
- GI50 (LOX IMVI): > 100 µM (inactive)
- GI50 (MOLT-4): > 100 µM (inactive)
- GI50 (NCI-H460): > 100 µM (inactive)
- GI50 (OVCAR-4): > 100 µM (inactive)
- GI50 (OVCAR-5): > 100 µM (inactive)
- GI50 (SF-268): > 100 µM (inactive)
- GI50 (SF-295): > 100 µM (inactive)
- GI50 (SK-MEL-5): > 100 µM (inactive)
- GI50 (TK-10): > 100 µM (inactive)
- GI50 (UACC-257): > 100 µM (inactive)

Structure (SMILES): O=S(=O)(O)C(O)/C=C/c1ccccc1 (centres undefined)
- GI50 (786-0): > 100 µM (inactive)
- GI50 (CCRF-CEM): 52.5 µM (inactive)
- GI50 (DLD-1): > 100 µM (inactive)
- GI50 (EKVX): > 100 µM (inactive)
- GI50 (HCC 2998): > 100 µM (inactive)
- GI50 (HCT-15): > 100 µM
- GI50 (K562): > 100 µM (inactive)
- GI50 (LOX IMVI): 49.3 µM (inactive)
- GI50 (MOLT-4): > 100 µM (inactive)
- GI50 (OVCAR-4): > 100 µM (inactive)
- GI50 (OVCAR-5): > 100 µM (inactive)
- GI50 (SF-268): > 100 µM (inactive)
- GI50 (SF-295): > 100 µM (inactive)
- GI50 (SK-MEL-5): > 100 µM (inactive)
- GI50 (TK-10): > 100 µM (inactive)
- GI50 (UACC-257): > 100 µM (inactive)
- GI50 (UACC-62): > 100 µM (inactive)
